# Results: publication PMC9121888 (Pharmacology Research & Perspectives, 2022)
# Where two headings read alike, the source gives them in different places.
# Tests used:
# [1] = Study 1 plasma pharmacokinetics of verinurad, allopurinol and oxypurinol; assay type: in vivo, human; settings: for Tmax: median (range)
# Description: Cohort 1 was randomized, double‐blind, and placebo‐controlled and consisted of 12 healthy Asian participants, of whom <50% were Chinese. Cohort 2 was open‐label, consisting of 9 healthy Chinese participants.
# In both studies, participants received verinurad capsules with an extended‐release profile. On the days of pharmacokinetic sampling, treatment was given in fasting state.
# Verinurad plasma samples were analyzed using similar methodologies as described by Shen et al.[13] with lower and upper limits of quantification of 0.100 ng/mL and 40.0 ng/mL, respectively.
# [2] = test system: serum uric acid (sUA) and urinary uric acid (uUA); settings: for sUA mean percentage change from screening: after 300 mg allopurinol QD for 7 days, day 1 (pre-dose); for sUA level at baseline (day –1): following 7 days of 300 mg allopurinol run-in
# [3] = human, plasma, oral, healthy Asian participants, 24 mg verinurad + 300 mg allopurinol QD, Day 1, geometric mean (gCV%), read-out: Cmax
# [4] = human, plasma, oral, healthy Asian participants, 24 mg verinurad + 300 mg allopurinol QD, Day 1, read-out: tmax
# [5] = human, plasma, oral, healthy Asian participants, 24 mg verinurad + 300 mg allopurinol QD, Day 7, geometric mean (gCV%), read-out: AUCτ
# [6] = human, plasma, oral, healthy Asian participants, 24 mg verinurad + 300 mg allopurinol QD, Day 7, geometric mean (gCV%), read-out: Cmax
# [7] = human, plasma, oral, healthy Chinese participants, 12 mg verinurad + 300 mg allopurinol day 1 and QD days 3-9, Day 9, geometric mean (gCV%), read-out: AUCτ
# [8] = human, plasma, oral, healthy Chinese participants, 12 mg verinurad + 300 mg allopurinol day 1 and QD days 3-9, Day 9, read-out: tmax
# [9] = human, plasma, oral, healthy Chinese participants, 12 mg verinurad + 300 mg allopurinol, Day 1, geometric mean (gCV%), read-out: AUC
# [10] = human, plasma, oral, healthy Chinese participants, 12 mg verinurad + 300 mg allopurinol, Day 1, geometric mean (gCV%), read-out: AUCτ
# [11] = human, plasma, oral, healthy Chinese participants, 12 mg verinurad + 300 mg allopurinol, Day 1, geometric mean (gCV%), read-out: Cmax
# [12] = human, plasma, oral, healthy Chinese participants, 12 mg verinurad + 300 mg allopurinol, Day 1, read-out: tmax
SMILES,"Cmax [1, 3] [ng/mL]","Tmax [1, 4] [h]","AUC [1, 5] [ng·h/mL]","Cmax [1, 6] [ng/mL]","AUC [1, 7] [ng·h/mL]","Tmax [1, 8] [h]","AUC [1, 9] [ng·h/mL]","AUC [1, 10] [ng·h/mL]","Cmax [1, 11] [ng/mL]","Tmax [1, 12] [h]",other results
"Oc1ncnc2[nH]ncc12 [allopurinol, reference compound]",1770,2,6020,1780,5740,2.55,6210,6210,1940,1.52,"AUC ([1]; human, plasma, oral, healthy Asian participants, 24 mg verinurad + 300 mg allopurinol QD, Day 1, geometric mean (gCV%), read-out: AUC): 6220 ng·h/mL; AUC ([1]; human, plasma, oral, healthy Asian participants, 24 mg verinurad + 300 mg allopurinol QD, Day 1, geometric mean (gCV%), read-out: AUCτ): 6230 ng·h/mL; Tmax ([1]; human, plasma, oral, healthy Asian participants, 24 mg verinurad + 300 mg allopurinol QD, Day 7, read-out: tmax): 3 h; Cmax ([1]; human, plasma, oral, healthy Chinese participants, 12 mg verinurad + 300 mg allopurinol day 1 and QD days 3-9, Day 9, geometric mean (gCV%), read-out: Cmax): 1570 ng/mL; sUA mean percentage change from screening ([2]; healthy Asian participants): −26.1%; sUA level at baseline (day –1) ([2]; healthy Asian participants, screening 6.31 mg/dL): 4.77 mg/dL; sUA mean percentage change from screening ([2]; healthy Chinese participants): −23.5%; sUA level at baseline (day –1) ([2]; healthy Chinese participants, screening 5.64 mg/dL): 4.49 mg/dL"
"O=c1[nH]c(=O)c2c[nH]nc2[nH]1 [Oxypurinol, oxypurinol]",11100,3,120000,7700,139000,3.1,342000,201000,11800,2,"AUCτ ([1]; healthy Asian participants, 24 mg verinurad + 300 mg allopurinol QD, Day 1, geometric mean (gCV%)): 180700 (18.3) ng·h/mL; Tmax ([1]; healthy Asian participants, 24 mg verinurad + 300 mg allopurinol QD, Day 7): 4.00 (3.00–6.00) h; Cmax ([1]; healthy Chinese participants, 12 mg verinurad + 300 mg allopurinol day 1 and QD days 3-9, Day 9, geometric mean (gCV%)): 8520 (10.5) ng/mL"
